# From patent US20110105436A1, “HETEROARYL COMPOUNDS, COMPOSITIONS, AND METHODS OF USE IN CANCER TREATMENT” (AUCKLAND UNISERVICES LIMITED, priority 2008, published 2011)
# Columns and labels:
# [1] = tested on: SN12C and SN12C+shVHL tumor samples; test: Ki67 immunostaining of tumor samples; type: in vivo, mice; conditions: RCC deficient in VHL or with wild-type VHL, FIG. 7H
# Procedure: B. XTT assay in RCC4 and RCC4/VHL in presence of STF-62247 (0-40 μM). Each point of the cell survival is calculated by the average of three different experiments in duplicate as the percent of treated on untreated plate. The error bars are represented as the standard error of the mean (SEM) C. qRT-PCR for Glutl, VEGF, PDF and PGK in RCC4 cells with or without HIF-1a, HIF-2a shRNA and in RCC4/VHL. D. Hoescht staining in RCC4 and RCC4/VHL cells with 1.25 μM of STF-62247 for 2 days. Camptothecin was used as positive control E. FACS analysis for apoptosis after an annexin V-FITC staining in presence or absence of propidium iodine (PI) in cells after a treatment in same conditions than in C. F. Immunoblot for active caspase-3 in RCC4 and RCC4/VHL following treatment with 1.25 μM of STF-62247 for 24 hours. Staurosporine was used as positive control (0.2 μM for 24 hours). G,H. Immunostaining of caspase-3 and Ki67 respectively in SN12C and SN12C+shVHL tumor samples untreated or treated with 30 μM of STF-62247.1. Immunoblot for p53 and SerlS phospho-p53 in RCC4 and RCC4/VHL cells after a treatment with 1.25 μM of STF-62247 or doxorubicin for 24 hours.
# RCC4 cells = test: XTT assay in VHL-deficient RCC4 cells; type: cell-based
# In short: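 RCC4 cells with and without VHL seeded at 5000/well, then exposed next day to serially diluted compound (DMSO vehicle) for four days. Viability read by XTT (0.3 mg/ml) with PMS, 1-2 h at 37° C, absorbance at 450 nm.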
# yeast deletion strains = test: Killing curves of yeast deletion strains; type: cell-based, S. cerevisiae
# Source text: Screen in yeast and killing curves. Genotypes of the parental yeast strain BY4743, construction of the homozygous diploid deletion strains, and construction of the homozygous diploid deletion pool have been described previously (Thomas, G. V., et al., Nat. Med. 2006, 12, 122). A mutant pool of 4728 nonessential homozygous diploid deletion strains was used. The parental diploid strain BY4743 was used as control in survival and complementation assays. […]
# A. Killing curves for 8 deletion yeast strains. Wild-type, ALG5, APS1, CLA4, DRS2, OSH3, VPS20, VPS25, YPT31 were incubated with STF-62247 (0-100 μM) for 1 hour and colony formation was evaluated after two days. Each point of the survival is calculated by the average of two different experiments in triplicate and as the percent of treated on untreated plate. B. Quantitative real time PCR for CHMP6, PAK2, RAB11a, OSBP3 and ALG5 in RCC4 and RCC4/VHL. Histogram is calculated by the average of three different experiments in triplicate as the percent of RCC4/VHL on RCC4 cells. […] Colony formation was evaluated as described before. *p<0.05 represents the difference between VHL cells and VHL with siRNA in presence of 5 μM of STF-62247.
# RCC4/VHL cells = test: XTT assay, RCC4/VHL versus RCC4 cells (selectivity ratio); type: cell-based
# In short: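 RCC4 cells with or without VHL (5000/well) exposed to serially diluted compounds for four days. Viability read as XTT metabolism (0.3 mg/ml XTT plus PMS, 1-2 h, 37 °C) at 450 nm. Ratio is IC50 in RCC4/VHL over IC50 in RCC4.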
compound,measurement,setting,value
"Cc1cccc(Nc2nc(-c3ccncc3)cs2)c1 [Compound 5, N-(3-Methylphenyl)-4-(4-pyridinyl)-1,3-thiazol-2-amine]",proliferation by Ki67 staining,[1],no difference in proliferation
same,IC50,"RCC4 cells; Homo sapiens, 96 h, Table 1, XTT assay, VHL-deficient RCC4 cells, four days",2100 nM
same,viability in a short term assay,"RCC4 cells; XTT, 0-40 μM, FIG. 7B",decreases the viability of VHL-deficient cells in a short term assay
same,sensitivity of yeast deletion strain,"yeast deletion strains; ATG8 deletion strain, data not shown",did not exhibit sensitivity to STF-62247
same,toxicity in yeast deletion strains,"yeast deletion strains; CLA4, VPS20, ALG5, OSH3 and YPT31 deletion strains, 0-100 μM, 1 h",significant toxicity in response to STF-62247
same,Ratio,"RCC4/VHL cells; Table 1, selectivity ratio, IC50 in RCC4/VHL cells/IC50 in RCC4 cells",19
same,IC50 ratio (wild-type VHL/VHL-deficient cells),RCC4/VHL cells; structure-activity text on Tables 1 and 2,high IC50 ratio
